According to patent US4376789A, “Surfactants which are polyhydric alcohol partial esters of adducts of maleic anhydride with an unsaturated carboxylic acid” (Grillo-Werke AG, priority 1980, dated 1983):

System: eye
Assay: Eye irritation test according to Draize
Type: in vivo
From the text: The good compatibility of the partial esters according to the invention with skin and mucous membranes is evident from the following investigations. In Table 1, the results of an eye irritation test, according to Draize, for the products of the invention are compared with those of anionic surfactants known to be acceptable dermatologically. It should be noted that substantially higher concentrations of the active products of the invention, than of the prior art compounds, were used in the test.
The Draize test was performed according to the provisions of the Appraisal of the Safety of Chemicals in Food, Drugs and Cosmetics, published by the United States Food and Drug Administration in 1959. According to this method, appraisal points are assigned as follows: […]

| Compound | Evaluation points according to Draize score (concentration % active substance: 100 (Examples 1, 3, 4), 65 (Example 2), 50 (Example 5, Na lauryl ether sulfate, undecylic acid semi-ester Na salt), 40 (tallow coco fat alcohol sulfate Na salt), 35 (ammonium lauryl sulfate)) | Evaluation points according to Draize score (in vivo) | Evaluation range (Draize) (in vivo) |
| --- | --- | --- | --- |
| CCCCCCCCCCCCOS(=O)(=O)O.N [Ammonium lauryl sulfate] | 12.9 Points | – | – |
| CCCCCCCCCCC(=O)NCCOC(=O)CC(C(=O)[O-])S(=O)(=O)O.CCCCCCCCCCC(=O)NCCOC(=O)CC(C(=O)[O-])S(=O)(=O)O.[Na+].[Na+] (stereo not shown) [Na salt of undecylic acid monethanolamide sulfo succinic acid semi-ester] | – | 19.6 Points | Slightly irritant |
| Na lauryl ether sulfate | – | 14.2 Points | Slightly irritant |
| Tallow coco fat alcohol sulfate Na salt | – | 24.3 Points | Slightly irritant |
